{"source": "patent US4567197A", "about": "“1,3-Dioxan-5-ylalkenoic acids” (Imperial Chemical Industries PLC, priority 1982, dated 1986)", "key": {"[1]": {"test_system": "hypertensive effects of the TXA2 mimetic U46619", "experiment": "antagonism of the hypertensive effect of U46619 in anaesthetised rats", "format": "in vivo, rat (Alderley Park strain)", "settings": "for period of significant reduction of the hypertensive effects of U46619: oral administration, dose not stated", "method": "Male rats (Alderley Park strain) are anaesthetised with sodium pentabarbital and blood pressure is monitored at the carotid artery. The TXA2 mimetic agent known as U46619 (e.g. R. L. Jones, et alia, in \"Chemistry, Biochemistry and Pharmacological Activity of Prostanoids\" eds. S. M. Roberts and F. Scheinmann, at p.211; Pergamon Press, 1979) is administered intravenously via the jugular vein and an ED50 (dose necessary to produce 50% of the maximum hypertensive effect) is established (n=3). The ED50 for U46619 is approximately 5 μg/kg. A test compound is then administered either intravenously via the jugular vein or orally via a cannula directly into the stomach and the animal challenged with an ED50 dose of U46619, five minutes after dosing with test compound and then successively every ten minutes until the hypertensive effect of U46619 is no longer blocked."}, "[2]": {"test_system": "bronchoconstriction induced in the Konzett-Rossler guinea-pig model", "experiment": "bronchoconstriction test (c), Konzett-Rossler guinea-pig model, induced by U46619", "format": "in vivo", "settings": "5 mg./kg. i.v., U46619 1-1.5 μg/kg i.v.", "text": "(§1) As stated earlier, the compounds of formula I are antagonists of one or more of the actions of TXA2, for example certain of its actions on blood platelets, the vasculature and/or the lung.\n(c) a standard bronchoconstriction test involving measuring the inhibition by a test compound of the bronchoconstriction induced in the Konzett-Rossler guinea-pig model (as modified by Collier and James, Brit. J. Pharmacol., 1967, 30, 283-307) by intravenous administration of the TXA2 mimetic agent, U46619 at 1-1.5 μg/kg."}, "rabbit aortal strip": {"test_system": "rabbit aortal strip", "experiment": "rabbit aortal strip test (a), TXA2 as agonist", "method": "as §1\n(a) The standard rabbit aortal strip model devised by Piper and Vane (Nature, 1969, 223, 29-35) using as agonist a freshly prepared sample of TXA2, generated by addition of arachidonic acid (25 μg. to citrated, platelet rich rabbit plasma (250 μl. ) and allowing the mixture to aggregate fully over 90 seconds before use;"}, "[3]": {"test_system": "citrated, platelet rich human plasma", "experiment": "blood platelet aggregation test (b), induced by arachidonic acid", "format": "cell-based", "settings": "aggregation induced by sub-maximal arachidonic acid (25-100 μg/ml.)", "method": "as §1\n(b) a standard blood platelet aggregation test based on that described by Born (Nature, 1962, 194, 927-929) and involving measuring the inhibition by a test compound of aggregation of citrated, platelet rich human plasma induced by a sub-maximal concentration (in the range 25-100 μg/ml.) of arachidonic acid; and […]"}}, "data": [{"smiles": "CCC1(CC)OC[C@@H](C/C=C\\CCCC(=O)O)[C@@H](c2ccccc2)O1", "note": "(relative stereo) [Compound 1, 5(Z)-7-(2,2-diethyl-4-phenyl-1,3-dioxan-cis-5-yl)heptenoic acid]", "values": [{"measurement": "period of significant reduction of the hypertensive effects of U46619", "setting": "[1]", "result": "at least 60 minutes"}]}, {"smiles": "O=C(O)CCC/C=C\\C[C@@H]1COC2(CCCCC2)O[C@@H]1c1ccccc1", "note": "(relative stereo) [Compound 2, 5(Z)-7-(4'-phenyl-[cyclohexanespiro-2'-1,3-dioxan]-cis-5'-yl)heptenoic acid]", "values": [{"measurement": "period of significant reduction of the hypertensive effects of U46619", "setting": "[1]", "result": "at least 60 minutes"}]}, {"smiles": "CC1(C)OC[C@@H](C/C=C\\CCCC(=O)O)[C@@H](c2cccc(F)c2)O1", "note": "(relative stereo) [Compound 3]", "values": [{"measurement": "period of significant reduction of the hypertensive effects of U46619", "setting": "[1]", "result": "at least 60 minutes"}]}, {"smiles": "COc1ccccc1[C@H]1OC(C)(C)OC[C@H]1C/C=C\\CCCC(=O)O", "note": "(relative stereo) [Compound 5, 5(Z)-7-[2,2-dimethyl-4-(2-methoxyphenyl)-1,3-dioxan-cis-5-yl]heptenoic acid]", "values": [{"measurement": "period of significant reduction of the hypertensive effects of U46619", "setting": "[1]", "result": "at least 60 minutes"}]}, {"smiles": "O=C(O)CCC/C=C\\C[C@@H]1CO[C@H](c2ccccc2Cl)O[C@@H]1c1ccccc1", "note": "(relative stereo) [Compound 11]", "values": [{"measurement": "period of significant reduction of the hypertensive effects of U46619", "setting": "[1]", "result": "at least 60 minutes"}]}, {"smiles": "O=C(O)CCC/C=C\\C[C@@H]1CO[C@H](c2ccc(Cl)cc2)O[C@@H]1c1ccccc1", "note": "(relative stereo) [Compound 13]", "values": [{"measurement": "period of significant reduction of the hypertensive effects of U46619", "setting": "[1]", "result": "at least 60 minutes"}]}, {"smiles": "CC(C)[C@H]1OC[C@@H](C/C=C\\CCCC(=O)O)[C@@H](c2ccccc2)O1", "note": "(relative stereo) [Compound 20]", "values": [{"measurement": "period of significant reduction of the hypertensive effects of U46619", "setting": "[1]", "result": "at least 60 minutes"}]}, {"smiles": "O=C(O)CCC/C=C\\C[C@@H]1CO[C@H](c2ccc3c(c2)OCO3)O[C@@H]1c1ccccc1", "note": "(relative stereo) [Compound 21]", "values": [{"measurement": "period of significant reduction of the hypertensive effects of U46619", "setting": "[1]", "result": "at least 60 minutes"}]}, {"smiles": "C[C@H]1OC[C@@H](C/C=C\\CCCC(=O)O)[C@@H](c2ccccc2)O1", "note": "(relative stereo) [Compound 23, 5(Z)-7-([2,4,5-cis]-2-methyl-4-phenyl-1,3-dioxan-5-yl)heptenoic acid]", "values": [{"measurement": "period of significant reduction of the hypertensive effects of U46619", "setting": "[1]", "result": "at least 60 minutes"}]}, {"smiles": "Cc1ccccc1[C@H]1OC(C)(C)OC[C@H]1C/C=C\\CCCC(=O)O", "note": "(relative stereo) [Compound 24, 5(Z)-7-[2,2-dimethyl-4-(2-methylphenyl)-1,3-dioxan-cis-5-yl]heptenoic acid]", "values": [{"measurement": "period of significant reduction of the hypertensive effects of U46619", "setting": "[1]", "result": "at least 60 minutes"}]}, {"smiles": "CC1(C)OC[C@@H](C/C=C\\CCCC(=O)O)[C@@H](c2ccccc2)O1", "note": "(relative stereo) [Example 1, 5(Z)-7-(2,2-dimethyl-4-phenyl-1,3-dioxan-cis-5-yl)heptenoic acid]", "values": [{"measurement": "reduction of bronchoconstriction", "setting": "[2]", "result": 90, "unit": "%"}, {"measurement": "pA2", "setting": "rabbit aortal strip", "result": 6.28}, {"measurement": "IC50", "setting": "[3]", "result": "~67", "unit": "µM"}]}, {"smiles": "CCC1(CC)OC[C@@H](C/C=C\\CCCC(=O)O)[C@@H](c2ccccc2)O1", "note": "(single isomer, unassigned) [Example 100, (-)-5(Z)-(2,2-diethyl-4-phenyl-1,3-dioxan-cis-5-yl)heptenoic acid]", "values": [{"measurement": "period of significant reduction (>30%) of the hypertensive effects of U46619", "setting": "[1]; oral, 50 mg./kg.", "result": 120, "unit": "min"}, {"measurement": "reduction of the hypertensive effects of U46619", "setting": "[1]; oral, 50 mg./kg., for a period of 120 minutes", "result": "> 30", "unit": "%"}]}, {"smiles": "CCCCC[C@H](O)/C=C/[C@@H]1[C@@H](C/C=C\\CCCC(=O)O)[C@H]2CO[C@@H]1C2", "note": "[Example U46619, reference compound]", "values": [{"measurement": "ED50", "setting": "[1]; Rattus norvegicus, intravenous via jugular vein, n=3, read-out: ED50 (dose necessary to produce 50% of the maximum hypertensive effect)", "result": "~5", "unit": "µg/kg"}]}]}
